Data published in US8841456B2, “1,5-naphthyridine derivative or salt thereof” (FUJIFILM Corporation, priority 2011, dated 2014).
Read-outs that look alike come from different tables or passages of the source.

Tests used:
human PI3Kα protein = target: T1, human PI3Kα protein (Homo sapiens, UniProt P42336); test: PI3Kα enzyme assay (ADP-Glo kinase assay); assay type: biochemical; settings: 3 nM PI3Kα, 50 μM PIP2, 100 μM ATP
T1 construct: purchased Carna Biosciences, Inc; host or cells: Baculovirus expression system
T1 sequence (P42336 whole entry): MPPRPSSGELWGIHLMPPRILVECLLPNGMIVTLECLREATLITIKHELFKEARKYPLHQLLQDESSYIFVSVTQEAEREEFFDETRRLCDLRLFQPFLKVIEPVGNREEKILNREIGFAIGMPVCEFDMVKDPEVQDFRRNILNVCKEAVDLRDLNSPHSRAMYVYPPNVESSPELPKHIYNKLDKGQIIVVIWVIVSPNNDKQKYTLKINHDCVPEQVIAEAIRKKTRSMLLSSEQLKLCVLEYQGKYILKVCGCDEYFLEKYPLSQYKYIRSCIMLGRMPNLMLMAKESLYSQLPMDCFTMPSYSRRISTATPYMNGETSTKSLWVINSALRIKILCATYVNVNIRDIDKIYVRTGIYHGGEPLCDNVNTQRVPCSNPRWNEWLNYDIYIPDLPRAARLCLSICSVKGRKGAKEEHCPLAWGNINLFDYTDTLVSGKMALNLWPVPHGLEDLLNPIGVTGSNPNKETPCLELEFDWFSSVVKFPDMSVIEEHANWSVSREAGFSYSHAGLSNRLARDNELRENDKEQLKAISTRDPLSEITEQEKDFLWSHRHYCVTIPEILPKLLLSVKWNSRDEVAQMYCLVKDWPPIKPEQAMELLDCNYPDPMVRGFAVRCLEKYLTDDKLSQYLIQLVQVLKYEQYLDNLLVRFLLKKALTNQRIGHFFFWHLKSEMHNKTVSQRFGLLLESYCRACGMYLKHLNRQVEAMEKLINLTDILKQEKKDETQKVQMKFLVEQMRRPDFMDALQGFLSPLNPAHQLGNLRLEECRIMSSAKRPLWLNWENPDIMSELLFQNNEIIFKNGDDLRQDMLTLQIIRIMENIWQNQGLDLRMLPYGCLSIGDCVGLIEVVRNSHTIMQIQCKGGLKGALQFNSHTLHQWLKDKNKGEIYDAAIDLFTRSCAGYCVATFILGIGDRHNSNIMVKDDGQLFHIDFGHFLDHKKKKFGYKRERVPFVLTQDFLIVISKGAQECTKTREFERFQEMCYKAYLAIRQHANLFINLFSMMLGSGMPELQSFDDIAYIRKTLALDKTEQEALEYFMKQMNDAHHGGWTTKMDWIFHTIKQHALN
T1 sequence (P27986 whole entry partner): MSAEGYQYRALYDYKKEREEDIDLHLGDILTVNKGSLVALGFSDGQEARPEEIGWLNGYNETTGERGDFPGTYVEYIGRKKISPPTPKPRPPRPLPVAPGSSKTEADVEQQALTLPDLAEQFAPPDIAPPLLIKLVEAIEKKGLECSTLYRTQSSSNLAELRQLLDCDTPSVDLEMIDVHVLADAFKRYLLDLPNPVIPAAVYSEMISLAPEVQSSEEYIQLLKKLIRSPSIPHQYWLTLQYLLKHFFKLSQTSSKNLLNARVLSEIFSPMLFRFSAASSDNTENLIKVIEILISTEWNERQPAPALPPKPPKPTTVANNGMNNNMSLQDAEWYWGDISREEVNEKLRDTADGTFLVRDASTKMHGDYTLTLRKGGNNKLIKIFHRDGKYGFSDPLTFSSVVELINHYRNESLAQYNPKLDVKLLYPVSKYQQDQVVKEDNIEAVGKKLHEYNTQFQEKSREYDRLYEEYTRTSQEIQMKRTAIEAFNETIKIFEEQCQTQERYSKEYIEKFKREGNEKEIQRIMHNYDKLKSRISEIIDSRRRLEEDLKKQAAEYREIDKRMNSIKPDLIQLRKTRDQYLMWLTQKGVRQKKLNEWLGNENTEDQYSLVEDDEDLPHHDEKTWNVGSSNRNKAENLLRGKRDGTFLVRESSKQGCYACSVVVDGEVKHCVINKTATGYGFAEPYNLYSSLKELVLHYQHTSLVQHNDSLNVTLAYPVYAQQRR
Procedure: Evaluation of the PI3Kα inhibitory activity of the compound of the present invention was carried out according to the method as described below.
For the PI3Kα enzyme assay, biotinylated product of a human PI3Kα protein produced using a Baculovirus expression system (Carna Biosciences, Inc.) was used. Further, for the detection of the enzyme activity, an ADP-Glo kinase assay (PROMEGA Corporation) was used.
10 μL of a reaction solution (3 nM PI3Kα, 40 mM Tris-HCl, 20 mM MgCl2, 0.1% BSA, pH 7.5) including the human PI3Kα protein and a test compound at a predetermined concentration was incubated at room temperature for 15 minutes. Thereafter, 5 μL of a mixed solution of L-α-Phosphatidylinositol 4,5-diphosphate (PIP2) (SIGMA-ALDLICH) which was a substrate and ATP(SIGMA-ALDLICH) was added thereto to a final concentration of 50 μM and 100 μM, respectively, and the reaction solution was further incubated at 25° C. for 60 minutes to carry out an enzyme reaction.
After the reaction, 15 μL of an ADP-Glo reagent (PROMEGA Corporation) was added and the resulting liquid was incubated at room temperature for 60 minutes, whereby the enzyme reaction was stopped. Thereafter, after further adding 30 μL of a Kinase Detection Reagent (PROMEGA Corporation) and standing the resulting solution at room temperature for 40 minutes, ADP produced by the enzyme reaction was quantified by luminescence intensity.
For the measurement of luminescence intensity, EnVision (PerkinElmer, Inc.) was used.
(§1) The inhibitory activity of the compounds was evaluated using an IC50 (50% inhibitory concentration). The IC50 was calculated using XLfit (IDBS).

[1] = target: T2, glutathione S-transferase (GST)-fusion human ERK2 protein (Homo sapiens, UniProt P28482); test: ERK2 enzyme assay (LabChip mobility shift); assay type: biochemical; settings: 2 nM ERK2, 4.25 μM FL-Peptide 8, 43 μM ATP
T2 construct: purchased Carna Biosciences, Inc; host or cells: E. coli expression system
T2 sequence (P28482 whole entry, the tested form may be a part): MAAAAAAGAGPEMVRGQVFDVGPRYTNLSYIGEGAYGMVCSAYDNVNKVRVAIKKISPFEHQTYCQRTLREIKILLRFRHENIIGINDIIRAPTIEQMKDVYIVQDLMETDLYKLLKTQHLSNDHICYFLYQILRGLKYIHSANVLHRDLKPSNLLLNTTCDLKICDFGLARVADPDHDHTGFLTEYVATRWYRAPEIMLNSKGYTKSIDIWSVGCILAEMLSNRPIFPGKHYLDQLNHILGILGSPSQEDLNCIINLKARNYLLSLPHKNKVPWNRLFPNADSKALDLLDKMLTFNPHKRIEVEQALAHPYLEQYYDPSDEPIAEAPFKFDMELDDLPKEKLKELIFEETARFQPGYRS
Procedure: Evaluation of the ERK2 inhibitory activity of the compound of the present invention was carried out according to the method as described below.
For the ERK2 enzyme assay, a glutathione S-transferase (GST)-fusion human ERK2 protein (Carna Biosciences, Inc.) produced using an E. coli expression system was used.
12 μL of the reaction solution (2 nM ERK2, 100 mM Hepes, 10 mM MgCl2, 1.5 mM DTT, 0.003% Brij35, pH 7.5) including the ERK2 protein and a test compound at a predetermined concentration was incubatedat room temperature for 15 minutes. Thereafter, 3 μL of a mixed solution of FL-Peptide 8 (5-FAM-IPTSPITTTYFFFKKK-COOH) (Caliper Lifescience) which was a substrate and ATP(SIGMA-ALDLICH) were added thereto to a final concentration of 4.25 μM and 43 μM, respectively. The reaction solution was further incubated at 25° C. for 120 minutes to carry out an enzyme reaction.
The enzyme reaction was stopped by adding 27 μL of a reaction-stopping solution (100 mM HEPES, 11.2 mM EDTA, 5.6% Brij35, pH 7.5) including a 0.5% Coating reagent 8 (PerkinElmer, Inc.) after the reaction. Thereafter, non-phosphorylated peptides and phosphorylated peptides were separated using LabChip Ez Reader (Caliper LifeScience, Inc.) to quantify the proportion of phosphorylated peptides.
as §1

[2] = IC50 class, read-out: PI3Kα Inhibitory Activity
[3] = IC50 class, read-out: ERK2 Inhibitory Activity

Structure (SMILES)	IC50 (human PI3Kα protein; [2])	IC50 [1, 3]	IC50 (human PI3Kα protein; read-out: PI3Kα, IC50)	IC50 ([1]; read-out: ERK2, IC50)
CCN(CC)CCNC(=O)Nc1ccc2ncc(-c3cn[nH]c3)cc2n1 [Compound 0109]	> 10000 nM	1000 to 10000 nM	–	–
O=C(NCC1C[C@@H]2CC[C@H]1C2)Nc1ccc2ncc(-c3cn[nH]c3)cc2n1 (some centres unmarked) [Compound 0110]	< 100 nM	< 100 nM	–	–
O=C(NCCn1cnc2ccccc21)Nc1ccc2ncc(-c3cn[nH]c3)cc2n1 [Compound 0111]	1000 to 10000 nM	100 to 1000 nM	–	–
O=C(NCCc1c[nH]c2ccccc12)Nc1ccc2ncc(-c3cn[nH]c3)cc2n1 [Compound 0112]	100 to 1000 nM	< 100 nM	–	–
O=C(NCC1CCC(F)(F)CC1)Nc1ccc2ncc(-c3cn[nH]c3)cc2n1 [Compound 0113]	100 to 1000 nM	< 100 nM	–	–
O=C(Nc1ccc2ncc(-c3cnn(CCN4CCOCC4)c3)cc2n1)NC1C[C@H]2CC[C@@H]1C2 (some centres unmarked) [Compound 0114]	< 100 nM	< 100 nM	–	–
O=C(NCCC(F)(F)F)Nc1ccc2ncc(-c3cn[nH]c3)cc2n1 [Compound 0115]	< 100 nM	< 100 nM	–	–
O=C(Nc1ccc2ncccc2n1)NC1CCCC1 [Compound 0116]	100 to 1000 nM	1000 to 10000 nM	–	–
O=C(Nc1ccc2ncc(-c3cnn(CCN4CC5(COC5)C4)c3)cc2n1)NC1CCCC1 [Compound 0117]	< 100 nM	100 to 1000 nM	–	–
O=C(Nc1ccc2ncc(-c3ccsc3)cc2n1)NC1CCCC1 [Compound 0118]	100 to 1000 nM	< 100 nM	–	–
O=C(Nc1ccc2ncc(-c3ccoc3)cc2n1)NC1CCCC1 [Compound 0119]	100 to 1000 nM	< 100 nM	–	–
O=C(Nc1ccc2ncc(-c3ccc4c(c3)OCO4)cc2n1)NC1CCCC1 [Compound 0120]	100 to 1000 nM	100 to 1000 nM	–	–
O=C(Nc1ccc2ncc(-c3cnc4ccccc4c3)cc2n1)NC1CCCC1 [Compound 0121]	1000 to 10000 nM	1000 to 10000 nM	–	–
O=C(Nc1ccc2ncc(-c3ccc4[nH]ncc4c3)cc2n1)NC1CCCC1 [Compound 0122]	< 100 nM	< 100 nM	–	–
O=C(Nc1ccc2ncc(-c3cnc4[nH]ccc4c3)cc2n1)NC1CCCC1 [Compound 0123]	100 to 1000 nM	1000 to 10000 nM	–	–
O=C(Nc1ccc2ncc(-c3c[nH]nc3C(F)(F)F)cc2n1)NC1CCCC1 [Compound 0124]	< 100 nM	< 100 nM	–	–
O=C(Nc1ccc2ncc(Nc3cn[nH]c3)cc2n1)NC1CCCC1 [Compound 0125]	< 100 nM	100 to 1000 nM	< 3 nM	324 nM
O=C(Nc1ccc2ncc(Nc3cc[nH]n3)cc2n1)NC1CCCC1 [Compound 0126]	< 100 nM	100 to 1000 nM	–	–
COC(=O)C#Cc1cnc2ccc(NC(=O)NC3CCCC3)nc2c1 [Compound 0127]	100 to 1000 nM	1000 to 10000 nM	–	–
O=C(Nc1ccc2ncc(-c3cc(O)no3)cc2n1)NC1CCCC1 [Compound 0128]	100 to 1000 nM	1000 to 10000 nM	–	–
N#Cc1cnc2ccc(NC(=O)NC3CCCC3)nc2c1 [Compound 0129]	1000 to 10000 nM	1000 to 10000 nM	–	–
NC(=O)c1cnc2ccc(NC(=O)NC3CCCC3)nc2c1 [Compound 0130]	100 to 1000 nM	100 to 1000 nM	–	–
O=C(Nc1ccc2ncc(-c3nn[nH]n3)cc2n1)NC1CCCC1 [Compound 0131]	< 100 nM	100 to 1000 nM	–	–
O=C(Nc1ccc2ncc(CN3CCOCC3)cc2n1)NC1CCCC1 [Compound 0132]	1000 to 10000 nM	1000 to 10000 nM	–	–
O=C(Nc1ccc2ncc(N3CCS(=O)(=O)CC3)cc2n1)NC1CCCC1 [Compound 0133]	< 100 nM	< 100 nM	–	–
O=C(Nc1ccc2ncc(NC(=O)c3ccccc3)cc2n1)NC1CCCC1 [Compound 0134]	< 100 nM	1000 to 10000 nM	–	–
COc1ccc(C(=O)Nc2cnc3ccc(NC(=O)NC4CCCC4)nc3c2)cc1 [Compound 0135]	< 100 nM	> 10000 nM	–	–

Structure (SMILES)	IC50 (human PI3Kα protein; [2])	IC50 [1, 3]	IC50 (human PI3Kα protein; read-out: PI3Kα, IC50)	IC50 ([1]; read-out: ERK2, IC50)
O=C(Nc1ccc2ncc(-c3cn[nH]c3)cc2n1)NC1CCCC1 [Compound 0137]	< 100 nM	< 100 nM	10 nM	7 nM
S=C(Nc1ccc2ncc(-c3cnn(CCN4CCOCC4)c3)cc2n1)NC1CCCC1 [Compound 0138]	< 100 nM	< 100 nM	–	–
C[C@@H](NC(=O)Nc1ccc2ncc(-c3cn[nH]c3)cc2n1)c1ccccc1 [Compound 0139]	100 to 1000 nM	< 100 nM	–	–
O=C(Nc1ccc2ncc(Nc3cnccn3)cc2n1)NC1CCCC1 [Compound 0140]	< 100 nM	100 to 1000 nM	–	–
O=C(Nc1ccc2ncc(C(=O)N3CCOCC3)cc2n1)NC1CCCC1 [Compound 0141]	> 10000 nM	> 10000 nM	–	–
O=C1CN(c2cnc3ccc(NC(=O)NC4CCCC4)nc3c2)CCN1 [Compound 0142]	< 100 nM	100 to 1000 nM	–	–
O=C(Nc1ccc2ncc(-c3cnn(C4CNC4)c3)cc2n1)NC1CCCC1 [Compound 0143]	< 100 nM	100 to 1000 nM	–	–
O=C(Nc1ccc2ncc(-c3cnn(C4CCNC4)c3)cc2n1)NC1CCCC1 (centres unmarked) [Compound 0144]	< 100 nM	100 to 1000 nM	–	–
CN1CC(n2cc(-c3cnc4ccc(NC(=O)NC5CCCC5)nc4c3)cn2)C1 [Compound 0145]	< 100 nM	100 to 1000 nM	–	–
O=C(Nc1ccc2ncc(-c3cnn(CC4CNC4)c3)cc2n1)NC1CCCC1 [Compound 0146]	< 100 nM	< 100 nM	–	–
CN1CC(Cn2cc(-c3cnc4ccc(NC(=O)NC5CCCC5)nc4c3)cn2)C1 [Compound 0147]	< 100 nM	< 100 nM	–	–
CC(C)(C)OC(=O)C1CCN(c2cnc3ccc(NC(=O)NC4CCCC4)nc3c2)CC1 [Compound 0149]	100 to 1000 nM	1000 to 10000 nM	–	–
CN(C)CCNC(=O)C1CCN(c2cnc3ccc(NC(=O)NC4CCCC4)nc3c2)CC1 [Compound 0150]	100 to 1000 nM	1000 to 10000 nM	–	–
CS(=O)(=O)N1CCN(c2cnc3ccc(NC(=O)NC4CCCC4)nc3c2)CC1 [Compound 0151]	< 100 nM	< 100 nM	–	–
O=C(Nc1ccc2ncc(N3CCN(c4ccccc4)CC3)cc2n1)NC1CCCC1 [Compound 0153]	100 to 1000 nM	> 10000 nM	–	–
CN1CCN(c2cnc3ccc(NC(=O)NC4CCCC4)nc3c2)CC1=O [Compound 0155]	< 100 nM	100 to 1000 nM	–	–
O=C(Nc1ccc2ncc(-c3cn[nH]n3)cc2n1)NC1CCCC1 [Compound 0156]	< 100 nM	< 100 nM	–	–
O=C(Nc1ccc2ncc(-c3cn[nH]c3)cc2n1)N[C@H]1CCC[C@@H]1OCc1ccccc1 [Compound 0159]	< 100 nM	100 to 1000 nM	–	–
O=C(Nc1ccc2ncc(-c3cn[nH]c3)cc2n1)N[C@@H]1CCC[C@H]1OCc1ccccc1 [Compound 0160]	1000 to 10000 nM	< 100 nM	–	–
C[C@H](C[C@@H](C)Oc1ccccc1)NC(=O)Nc1ccc2ncc(-c3cn[nH]c3)cc2n1 [Compound 0161]	100 to 1000 nM	< 100 nM	–	–
C[C@H](C[C@H](C)NC(=O)Nc1ccc2ncc(-c3cn[nH]c3)cc2n1)Oc1ccccc1 [Compound 0162]	100 to 1000 nM	100 to 1000 nM	–	–
C[C@@H](C[C@H](C)Oc1ccccc1)NC(=O)Nc1ccc2ncc(-c3cn[nH]c3)cc2n1 [Compound 0163]	100 to 1000 nM	100 to 1000 nM	–	–
CC(C)(C)NC(=O)Nc1ccc2ncc(-c3cnn(CCCN4CCNCC4)c3)cc2n1 [Compound 0164]	< 100 nM	< 100 nM	–	–
O=C(NCCCCc1ccccc1Cl)Nc1ccc2ncc(-c3cn[nH]c3)cc2n1 [Compound 0165]	100 to 1000 nM	< 100 nM	–	–
O=C(NCCCCc1cccc(Cl)c1)Nc1ccc2ncc(-c3cn[nH]c3)cc2n1 [Compound 0166]	100 to 1000 nM	< 100 nM	–	–
O=C(NCCCCc1ccc(Cl)cc1)Nc1ccc2ncc(-c3cn[nH]c3)cc2n1 [Compound 0167]	100 to 1000 nM	< 100 nM	–	–
